# Measured values taken from ChEMBL document CHEMBL4825738, “EGFR-targeted prodrug activation using bioorthogonal alkene-azide click-and-release chemistry” (Bioorg Med Chem, 2021).
# Columns and labels:
# B16-F10-luc2 [1] = experiment: Cytotoxicity against mouse B16-F10-Luc2 cells in the measured after 72 hrs in presence of AB-TCO3 conjugate by resazurin assay; assay type: functional, cell-based; settings: B16-F10-luc2, 72 h
# B16-F10-luc2 [2] = experiment: Anti tumour activity in C57BL/6 mouse implanted with B16-F10-Luc2 murine cells assessed as median survival time at 5.9 mg/kg, iv administered for 6 hrs followed by antibody conjugate treatment; assay type: functional
# B16-F10-luc2 [3] = experiment: Cytotoxicity against mouse B16-F10-Luc2 cells expressing human EGFR measured after 72 hrs in presence of AB-TCO4 conjugates by resazurin assay; assay type: functional, cell-based; settings: B16-F10-luc2, 72 h
# B16-F10-luc2 [4] = experiment: Cytotoxicity against mouse B16-F10-Luc2 cells measured after 72 hrs by resazurin assay; assay type: cell-based; settings: B16-F10-luc2, 72 h
# B16-F10-luc2 [5] = experiment: Cytotoxicity against mouse B16-F10-Luc2 cells expressing human EGFR measured after 72 hrs in presence of AB-TCO3 conjugates by resazurin assay; assay type: functional, cell-based; settings: B16-F10-luc2, 72 h
# B16-F10-luc2 [6] = experiment: Cytotoxicity against mouse B16-F10-Luc2 cells expressing human EGFR measured after 72 hrs in presence of AB-TCO2 conjugates by resazurin assay; assay type: functional, cell-based; settings: B16-F10-luc2, 72 h
# B16-F10-luc2 [7] = experiment: Cytotoxicity against mouse B16-F10-Luc2 cells expressing human EGFR measured after 72 hrs by resazurin assay; assay type: cell-based; settings: B16-F10-luc2, 72 h
# B16-F10-luc2 [8] = experiment: Cytotoxicity against mouse B16-F10-Luc2 cells measured after 72 hrs in presence of AB-TCO2 conjugate by resazurin assay; assay type: functional, cell-based; settings: B16-F10-luc2, 72 h
# B16-F10-luc2 [9] = experiment: Cytotoxicity against mouse B16-F10-Luc2 cells expressing EGFR measured after 72 hrs in presence of 3.3 uM cetuximab by resazurin assay; assay type: functional, cell-based; settings: B16-F10-luc2, 72 h
# B16-F10-luc2 [10] = experiment: Cytotoxicity against mouse B16-F10-Luc2 cells expressing EGFR measured after 72 hrs in absence of cetuximab by resazurin assay; assay type: functional, cell-based; settings: B16-F10-luc2, 72 h
# B16-F10-luc2 [11] = experiment: Anti tumour activity in C57BL/6 mouse implanted with B16-F10-Luc2 murine cells assessed as median survival time at 4.5 mg/kg, ip administered for 24 hrs followed by antibody conjugate treatment; assay type: functional
SMILES,IC50 (B16-F10-luc2 [1]) [µM],MST (B16-F10-luc2 [2]) [days],IC50 (B16-F10-luc2 [3]) [µM],IC50 (B16-F10-luc2 [4]) [µM],IC50 (B16-F10-luc2 [5]) [µM],IC50 (B16-F10-luc2 [6]) [µM],IC50 (B16-F10-luc2 [7]) [µM],IC50 (B16-F10-luc2 [8]) [µM],IC50 (B16-F10-luc2 [9]) [µM],IC50 (B16-F10-luc2 [10]) [µM],MST (B16-F10-luc2 [11]) [days]
COc1cccc2c1C(=O)c1c(O)c3c(c(O)c1C2=O)C[C@@](O)(C(=O)CO)C[C@@H]3O[C@H]1C[C@H](NC(=O)OCc2ccc(N=[N+]=[N-])cc2)[C@H](O)[C@H](C)O1,3.44,26,2.09,4.49,0.12,0.78,1.68,5.14,,,
COc1cccc2c1C(=O)c1c(O)c3c(c(O)c1C2=O)C[C@@](O)(C(=O)CO)C[C@@H]3O[C@H]1C[C@H](N)[C@H](O)[C@H](C)O1 [DOXORUBICIN],,,,0.11,,,0.04,,0.09,0.04,39
